From US20120322654A1, “SYNERGISTIC FUNGICIDAL MIXTURES” (BASF SE, priority 2010, published 2012)

Test system: Septoria tritici
Assay: Microtiter plate test, activity against Septoria tritici (leaf blotch on wheat)
Assay type: cell-based
Settings: MTP, absorption at 405 nm 7 days after inoculation, 18° C
Method: The active compounds were formulated separately as a stock solution having a concentration of 10000 ppm in dimethyl sulfoxide.
Activity Against Septoria tritici, the Causal Agent of Leaf Blotch on Wheat
The stock solutions were mixed according to the ratio, pipetted onto a micro titer plate (MTP) and diluted with water to the stated concentrations. A spore suspension of Septoria tritici in an aqueous biomalt solution was then added. The plates were placed in a water vapor-saturated chamber at a temperature of 18° C. Using an absorption photometer, the MTPs were measured at 405 nm 7 days after the inoculation.
The measured parameters were compared to the growth of the active compound-free control variant (100%) and the fungus-free and active compound-free blank value to determine the relative growth in % of the pathogens in the respective active compounds.
The expected efficacies of active compound combinations were determined using Colby's formula (Colby, S. R., Calculating synergistic and antagonistic responses of herbicide combinations, Weeds, 15, pp. 20-22, 1967) and compared with the observed efficacies. […]

SMILES	Observed efficacy (0.25 ppm)	Observed efficacy (1 ppm)
O=C(Nc1ccccc1-c1ccc(Cl)cc1)c1cccnc1Cl [Boscalid, boscalid]	34%	–
CC1(C)C(C=C(Cl)Cl)C1C(=O)OC(C#N)c1cccc(Oc2ccccc2)c1 (stereo not drawn) [alpha-Cypermethrin, alpha-cypermethrin]	–	2%
